Laboratory results as given in the supplement of paper PMC10307832.

Assays:
Experiment in all cases: relative viability (nuclei count vs DMSO), 5 days (fraction); higher = more cells survive
RU-SKI 43 + Bortezomib = compound: CC[C@@H](C)CNCC(=O)N1CCC2=C([C@@H]1COC3=CC=CC(=C3)C)C=CS2 [RU-SKI 43] + CC(C)C[C@H](NC(=O)[C@H](Cc1ccccc1)NC(=O)c1cnccn1)B(O)O [Bortezomib] (partner 0.002 µM)
Method in brief: (§1)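 Cells from lung cancer lines were seeded into 1536-well plates and, one day later, dosed by pin tool. Treatments were either a single drug or a fixed dose of an anchor drug with five library-drug doses (not always all listed) in √10 steps. After 5 days, nuclei were stained in a one-step fixation (final 0.05% Triton X-100, 1% formaldehyde, 1 ug/ml Hoechst) and counted on 4× images, and relative viability is the treated-to-vehicle nuclei ratio, as the median of duplicate plates.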

MK-8033 + Crizotinib = compound: Cn1cc(-c2cnc3ccc4ccc(CS(=O)(=O)NCc5ccccn5)cc4c(=O)c3c2)cn1 [MK-8033] + C[C@@H](Oc1cc(-c2cnn(C3CCNCC3)c2)cnc1N)c1c(Cl)ccc(F)c1Cl [Crizotinib] (partner 1 µM)
Method in brief: as §1

RU-SKI 43 + Olaparib = compound: CC[C@@H](C)CNCC(=O)N1CCC2=C([C@@H]1COC3=CC=CC(=C3)C)C=CS2 [RU-SKI 43] + O=C(c1cc(Cc2n[nH]c(=O)c3ccccc23)ccc1F)N1CCN(C(=O)C2CC2)CC1 [Olaparib] (partner 8 µM)
Method in brief: as §1

MK-8033 + Navitoclax = compound: Cn1cc(-c2cnc3ccc4ccc(CS(=O)(=O)NCc5ccccn5)cc4c(=O)c3c2)cn1 [MK-8033] + CC1(C)CCC(c2ccc(Cl)cc2)=C(CN2CCN(c3ccc(C(=O)NS(=O)(=O)c4ccc(N[C@H](CCN5CCOCC5)CSc5ccccc5)c(S(=O)(=O)C(F)(F)F)c4)cc3)CC2)C1 [Navitoclax] (partner 0.5 µM)
Method in brief: as §1

## UMC-11
RU-SKI 43 + Bortezomib; first compound 0.1 µM
  relative viability: 0.731
RU-SKI 43 + Bortezomib; first compound 0.3162 µM
  relative viability: 1.1
RU-SKI 43 + Bortezomib; first compound 1 µM
  relative viability: 1.05
RU-SKI 43 + Bortezomib; first compound 3.162 µM
  relative viability: 0.666
RU-SKI 43 + Bortezomib; first compound 10 µM
  relative viability: 0.927
MK-8033 + Crizotinib; first compound 0.02 µM
  relative viability: 0.737
MK-8033 + Crizotinib; first compound 0.06325 µM
  relative viability: 0.459
MK-8033 + Crizotinib; first compound 0.2 µM
  relative viability: 0.734
MK-8033 + Crizotinib; first compound 0.6325 µM
  relative viability: 0.678
MK-8033 + Crizotinib; first compound 2 µM
  relative viability: 0.697
RU-SKI 43 + Olaparib; first compound 0.1 µM
  relative viability: 0.397
RU-SKI 43 + Olaparib; first compound 0.3162 µM
  relative viability: 0.418
RU-SKI 43 + Olaparib; first compound 1 µM
  relative viability: 0.399
RU-SKI 43 + Olaparib; first compound 3.162 µM
  relative viability: 0.383
RU-SKI 43 + Olaparib; first compound 10 µM
  relative viability: 0.273
MK-8033 + Navitoclax; first compound 0.02 µM
  relative viability: 0.306
MK-8033 + Navitoclax; first compound 0.06325 µM
  relative viability: 0.265
MK-8033 + Navitoclax; first compound 0.2 µM
  relative viability: 0.287
MK-8033 + Navitoclax; first compound 0.6325 µM
  relative viability: 0.28
MK-8033 + Navitoclax; first compound 2 µM
  relative viability: 0.332
